Source: article PMC5738360, “Engineering cell sensing and responses using a GPCR-coupled CRISPR-Cas system” (Nature Communications, 2017)

Assays:
Assay in all cases: ChaCha beta-arrestin/TEV-release GFP reporter in HEK293T cells
Type in all cases: cell-based
[1] = target: T1, kappa opioid receptor DREADD (KORD) (Homo sapiens, UniProt P41145, D138N)
T1 construct: gene OPRK1; KORD-V2-TEVp; with ARRB2 (ARRB2-TCS-dCas9-VPR)

LPAR1 = target: T2, LPAR1 (Homo sapiens, UniProt Q92633)
T2 construct: LPAR1-V2-TEVp; with ARRB2 (ARRB2-TCS-dCas9-VPR)

TRHR = target: T3, TRHR (Homo sapiens, UniProt P34981)
T3 construct: TRHR-V2-TEVp; with ARRB2 (ARRB2-TCS-dCas9-VPR)
T3 sequence (P34981 whole entry): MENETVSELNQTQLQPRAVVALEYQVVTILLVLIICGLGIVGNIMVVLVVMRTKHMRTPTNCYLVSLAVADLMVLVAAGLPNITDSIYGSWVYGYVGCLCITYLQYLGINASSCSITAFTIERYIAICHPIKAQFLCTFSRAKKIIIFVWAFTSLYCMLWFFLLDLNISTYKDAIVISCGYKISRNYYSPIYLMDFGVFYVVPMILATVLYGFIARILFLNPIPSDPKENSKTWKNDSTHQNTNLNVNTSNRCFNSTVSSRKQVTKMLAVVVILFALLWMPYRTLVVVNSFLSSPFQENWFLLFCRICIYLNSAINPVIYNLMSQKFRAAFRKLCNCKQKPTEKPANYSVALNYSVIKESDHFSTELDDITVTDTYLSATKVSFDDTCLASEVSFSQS
T3 sequence (P32121 whole entry partner): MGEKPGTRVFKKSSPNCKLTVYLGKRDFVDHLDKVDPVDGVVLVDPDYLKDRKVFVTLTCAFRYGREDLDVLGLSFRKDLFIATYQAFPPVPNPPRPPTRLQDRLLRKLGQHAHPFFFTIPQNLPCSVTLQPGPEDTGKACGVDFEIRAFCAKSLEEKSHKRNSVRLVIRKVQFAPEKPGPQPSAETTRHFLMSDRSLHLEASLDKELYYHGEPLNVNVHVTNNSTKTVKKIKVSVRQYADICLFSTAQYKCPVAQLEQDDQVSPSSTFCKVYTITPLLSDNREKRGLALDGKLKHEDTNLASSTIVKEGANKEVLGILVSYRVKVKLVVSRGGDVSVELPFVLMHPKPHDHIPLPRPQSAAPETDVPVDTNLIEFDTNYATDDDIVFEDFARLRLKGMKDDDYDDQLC

T2 sequence (Q92633 whole entry): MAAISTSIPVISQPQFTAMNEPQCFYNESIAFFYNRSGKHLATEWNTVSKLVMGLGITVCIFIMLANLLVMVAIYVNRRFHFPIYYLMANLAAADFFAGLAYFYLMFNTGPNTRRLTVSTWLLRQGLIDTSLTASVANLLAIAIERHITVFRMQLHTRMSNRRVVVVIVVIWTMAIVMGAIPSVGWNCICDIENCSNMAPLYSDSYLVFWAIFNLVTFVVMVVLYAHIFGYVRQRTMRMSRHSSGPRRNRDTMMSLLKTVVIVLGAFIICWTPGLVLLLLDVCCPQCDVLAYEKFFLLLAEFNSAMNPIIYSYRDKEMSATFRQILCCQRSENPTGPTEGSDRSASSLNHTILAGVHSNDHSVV
T2 sequence (P32121 whole entry partner): as the sequence (P32121 whole entry partner) above
T1 sequence (P41145 whole entry D138N): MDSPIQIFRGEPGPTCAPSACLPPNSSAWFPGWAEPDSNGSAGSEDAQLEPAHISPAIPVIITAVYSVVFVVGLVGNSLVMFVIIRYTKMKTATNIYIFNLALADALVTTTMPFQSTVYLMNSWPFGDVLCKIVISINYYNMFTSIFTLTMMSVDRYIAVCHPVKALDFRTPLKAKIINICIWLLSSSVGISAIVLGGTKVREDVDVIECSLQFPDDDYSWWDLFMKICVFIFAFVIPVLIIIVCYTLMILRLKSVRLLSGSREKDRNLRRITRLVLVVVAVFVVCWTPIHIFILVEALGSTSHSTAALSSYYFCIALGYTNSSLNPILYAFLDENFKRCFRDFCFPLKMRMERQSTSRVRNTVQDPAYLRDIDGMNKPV
T1 sequence (P32121 whole entry, further chain): as the sequence (P32121 whole entry partner) above

SMILES: COC(=O)[C@@H]1C[C@H](O)C(=O)[C@H]2[C@@]1(C)CC[C@H]1C(=O)O[C@H](c3ccoc3)C[C@]21C [Salvinorin B]
- ChaCha beta-arrestin/TEV-release GFP reporter in HEK293T cells [1]: another evolved GPCR, the kappa opioid receptor DREADD (KORD), which senses Salvinorin B

SMILES: CCCCCCCC/C=C\CCCCCCCC(=O)OC[C@@H](O)COP(=O)(O)O [lysophosphatidic acid]
- ChaCha beta-arrestin/TEV-release GFP reporter in HEK293T cells (LPAR1): LPAR1, which senses the fatty acid lysophosphatidic acid

SMILES: NC(=O)[C@@H]1CCCN1C(=O)[C@H](Cc1cnc[nH]1)NC(=O)[C@@H]1CCC(=O)N1 [thyrotropin-releasing hormone]
- ChaCha beta-arrestin/TEV-release GFP reporter in HEK293T cells (TRHR): TRHR, which senses thyrotropin-releasing hormone
